From patent US20250388574A1, “HETEROCYCLIC COMPOUNDS AS TRIGGERING RECEPTOR EXPRESSED ON MYELOID CELLS 2 AGONISTS AND METHODS OF USE” (AMGEN INC., priority 2020, published 2025)

Biological target: hTREM2 (Homo sapiens, UniProt Q9NZC2)
Experiment: Phospho-Syk AlphaScreen/AlphaLISA assay in TREM2 and DAP12 overexpressing HEK293 cells (Example A1)
Assay type: cell-based
Set-up: expressed in transfected cells
Settings: HEK293 cells; for EC50: read-out: hTREM2 EC50
Experimental: Pharmacological measurements of TREM2 signaling through DAP12 were made with TREM2 and DAP12 overexpressing HEK293 cells stable cell lines that had been single-cell cloned (“TREM2/DAP12-HEK”). The readout of the TREM2 signaling utilized Perkin Elmer AlphaScreen/AlphaLISA technology monitoring the phosphorylation levels of the Syk kinase. TREM2/DAP12-HEK cell lines were cultured in DMEM-F12 (Corning 10-092-CM) supplemented with 1× Penicillin/Streptomycin (Corning 30-002-CI), 1× GlutaMAX (Gibco 35050-061), and 10% Fetal Bovine Serum (Life Technologies 10099) referred to as “HEK Culture Medium”. Suspensions of TREM2/DAP12-HEK cells were prepared in HEK Culture Medium and dispensed into 384-well poly-D-lysine coated microplates (Corning 354661) at a density of 20,000 cells/well using a Multidrop Combi peristaltic microplate dispenser (Thermo), 25 uL volume of cell suspension/well. Plates containing cells were then incubated for 20 hours in a humidified cell culture incubator at 37° C. with 5% CO2 (Thermo). […] Assay Buffer contained diluted test articles (in 1% final DMSO concentration for compounds) or 100 nM anti-human/mouse TREM2 antibody (R&D Systems MAB17291) as a positive control, 100 nM or rat IgG2B isotype Ab as a negative control (R&D Systems MAB0061). Incubated the plates with test articles and controls for 45 minutes at room temperature and then aspirated/removed the medium from each well of the plates. Used a Multidrop Combi peristaltic liquid handler (Thermo) to dispense 15 uL/well of “Cell Lysis Immunoassay Buffer”. The Cell Lysis Immunoassay Buffer contained M-PER Mammalian Protein Extraction Reagent (Pierce/ThermoFisher 78505), 1× Halt Phosphatase Inhibitor Cocktail (ThermoFisher #78427), 0.1875 nM anti-phospho-Syk ([…]/526) ([…]) rabbit mAb (Cell Signaling Technologies catalog #2710), and 1.5 nM biotinylated Mouse anti-human Syk (4D10) antibody (BD Biosciences, catalog #624008). Incubated plates for 1 hour at room temperature after the addition of the Cell Lysis Immunoassay Buffer. Used the Multidrop Combi liquid handler to dispense 15 μL of AlphaScreen Acceptor Bead Solution containing 7.5 μg/mL anti-rabbit IgG (Fc specific) AlphaLISA Acceptor Beads (Perkin Elmer A[…]) in 1× Immunoassay buffer (Perkin Elmer A[…]) to each well of the microplates. Incubated plates for 2 hours at room temperature. Following the incubation with the AlphaLISA Acceptor Bead Solution, used a Multidrop Combi liquid handler (Thermo) to dispense 15 μL of AlphaScreen Donor Bead Solution containing 30 μg/mL of AlphaScreen Streptavidin Donor beads (Perkin Elmer 6760002B) in 1× Immunoassay buffer (Perkin Elmer A[…]) to each well of the microplates. Incubated microplates for 2 hours protected from light sources as the AlphaScreen reagents are light sensitive. Once the final incubation was completed, acquired AlphaScreen signal from the donor and acceptor beads using an Envision high throughput multi-modal microplate reader (Perkin Elmer) calibrated to the plate type with the AlphaScreen mirror and filter-set in 384-well mode, 680 nanometer excitation wavelength. The total measurement time per well was 550 milliseconds with a 180 millisecond excitation time. After reading the AlphaScreen signal for each well of the microplates, on a plate-by-plate basis, each raw test article well value (x) was normalized to a Percent of Control (“POC”) value using the following formula: […] Each plate contained 12 of each type of control wells that were used to generate the mean values. For concentration response curve analysis with test articles tested at various concentrations, the % of activation values were analyzed with 4 Parameter Logistic or Sigmoidal Dose-Response Models using GeneData Screener (GeneData, AG) or GraphPad Prism 7 (Graphpad Software, Inc.). […] This assay may be used to test any of the compounds described herein to assess and characterize a compound's ability to act as an agonist of TREM2.

hTREM2, sequence (Q9NZC2 19-230): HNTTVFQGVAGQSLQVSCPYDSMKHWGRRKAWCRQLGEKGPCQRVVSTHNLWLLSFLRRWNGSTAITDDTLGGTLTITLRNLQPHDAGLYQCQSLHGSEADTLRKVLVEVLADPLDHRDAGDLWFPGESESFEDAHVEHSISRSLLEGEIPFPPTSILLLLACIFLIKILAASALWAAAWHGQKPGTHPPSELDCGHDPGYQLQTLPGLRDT
hTREM2, sequence (O43914 22-113 partner): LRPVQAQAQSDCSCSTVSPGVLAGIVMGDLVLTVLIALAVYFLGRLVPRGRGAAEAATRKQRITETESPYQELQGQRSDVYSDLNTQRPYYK

Structure (SMILES)	Emax	EC50 [µM]
Cc1nc2cc(N3CCO[C@@H](c4cnn(C)c4)C3)nc(-c3ccc(Cl)cn3)c2c(=O)n1C [Example 212, (S)-5-(5-chloropyridin-2-yl)-2,3-dimethyl-7-(2-(1-methyl-1H-pyrazol-4-yl)morpholino)pyrido[4,3-d]pyrimidin-4(3H)-one]	++++ (Emax>300)	3 to 100
Cc1nc2cc(N3CC[C@H](c4ccncc4)C3)nc(-c3ccc(Cl)cc3F)c2c(=O)n1C [Example 254, (R)-5-(4-chloro-2-fluorophenyl)-2,3-dimethyl-7-(3-(pyridin-4-yl)pyrrolidin-1-yl)pyrido[4,3-d]pyrimidin-4(3H)-one]	++++ (Emax>300)	3 to 100
Cc1nc2cc(N3CC[C@H](c4ccccn4)C3)nc(-c3ccc(Cl)cc3F)c2c(=O)n1C [Example 205, (S)-5-(4-chloro-2-fluorophenyl)-2,3-dimethyl-7-(3-(pyridin-2-yl)pyrrolidin-1-yl)pyrido[4,3-d]pyrimidin-4(3H)-one]	+++ (Emax>200 and ≤300)	3 to 100
Cc1nc2cc(N3CCOC(c4noc(-c5ccccc5)n4)C3)nc(-c3ccc(Cl)cc3F)c2c(=O)n1C (centres unmarked) [Example 93, 5-(4-chloro-2-fluorophenyl)-2,3-dimethyl-7-(2-(5-phenyl-1,2,4-oxadiazol-3-yl)-4-morpholinyl)pyrido[4,3-d]pyrimidin-4(3H)-one]	+++ (Emax>200 and ≤300)	0.5 to 3
Cc1ccc([C@@H]2CN(c3cc4nc(C)n(C)c(=O)c4c(-c4ccc(Cl)cc4F)n3)CCO2)cn1 (single isomer, unassigned) [Example 140]	++++ (Emax>300)	0.05 to 0.5
COc1ccc([C@@H]2CN(c3cc4nc(C)n(C)c(=O)c4c(-c4ccc(Cl)cc4F)n3)CCO2)cc1 [Example 237, (R)-5-(4-chloro-2-fluorophenyl)-7-(2-(4-methoxyphenyl)morpholino)-2,3-dimethylpyrido[4,3-d]pyrimidin-4(3H)-one]	++ (Emax>100 and ≤200)	0.05 to 0.5
Cc1nc2cc(N3CCO[C@H](c4cccnc4)C3)nc(-c3ccc(Cl)cc3F)c2c(=O)n1C [Example 210, (R)-5-(4-chloro-2-fluorophenyl)-2,3-dimethyl-7-(2-(pyridin-3-yl)morpholino)pyrido[4,3-d]pyrimidin-4(3H)-one]	++++ (Emax>300)	0.05 to 0.5
CCCn1c(C)nc2cc(N3CCOC(CF)C3)nc(-c3ccc(Cl)cc3F)c2c1=O (centres unmarked) [Example 185, 5-(4-chloro-2-fluorophenyl)-7-(2-(fluoromethyl)morpholino)-2-methyl-3-propylpyrido[4,3-d]pyrimidin-4(3H)-one]	+++ (Emax>200 and ≤300)	0.5 to 3
Cc1cn2c(n1)CN(c1cc3nc(C)n(C)c(=O)c3c(-c3ccc(Cl)cc3F)n1)CC2 [Example 234, 5-(4-chloro-2-fluorophenyl)-2,3-dimethyl-7-(2-methyl-5,6-dihydroimidazo[1,2-a]pyrazin-7(8H)-yl)pyrido[4,3-d]pyrimidin-4(3H)-one]	++ (Emax>100 and ≤200)	3 to 100
Cc1nc2cc(N3CCO[C@@H](c4cn[nH]c4)C3)nc(-c3ccc(Cl)cc3F)c2c(=O)n1C [Example 22, 5-(4-chloro-2-fluorophenyl)-2,3-dimethyl-7-((2S)-2-(1H-pyrazol-4-yl)-4-morpholinyl)pyrido[4,3-d]pyrimidin-4(3H)-one]	++++ (Emax>300)	< 0.05
COc1cc([C@@H]2CN(c3cc4nc(C)n(C)c(=O)c4c(-c4ccc(Cl)cc4F)n3)CCO2)ccn1 (single isomer, unassigned) [Example 83]	++++ (Emax>300)	0.05 to 0.5
Cc1nccc(C2CN(c3cc4nc(C)n(C)c(=O)c4c(-c4ccc(Cl)cc4F)n3)CCO2)n1 (centres unmarked) [Example 63, 5-(4-chloro-2-fluorophenyl)-2,3-dimethyl-7-(2-(2-methyl-4-pyrimidinyl)-4-morpholinyl)pyrido[4,3-d]pyrimidin-4(3H)-one]	++++ (Emax>300)	0.5 to 3
Cc1nc2cc(N3CCc4ccncc4C3)nc(-c3ccc(Cl)cc3F)c2c(=O)n1C [Example 102, 5-(4-chloro-2-fluorophenyl)-7-(3,4-dihydro-2,7-naphthyridin-2(1H)-yl)-2,3-dimethylpyrido[4,3-d]pyrimidin-4(3H)-one]	+++ (Emax>200 and ≤300)	0.05 to 0.5

Continued, values first:

Emax	EC50 [µM]	Structure (SMILES)
+++ (Emax>200 and ≤300)	3 to 100	Cc1noc([C@H]2CCCN(c3cc4nc(C)n(C)c(=O)c4c(-c4ccc(Cl)cc4F)n3)C2)n1 (single isomer, unassigned) [Example 112]
++++ (Emax>300)	< 0.05	Cc1nc2cc(N3CCC[C@@H](c4cn[nH]c4)C3)nc(-c3ccc(Cl)cc3F)c2c(=O)n1C (single isomer, unassigned) [Example 107]
+ (Emax>45 and ≤100)	3 to 100	Cc1nc2cc(N3CCC(c4nccn4C)C3)nc(-c3ccc(Cl)cc3F)c2c(=O)n1C (centres unmarked) [Example 122, 5-(4-chloro-2-fluorophenyl)-2,3-dimethyl-7-(3-(1-methyl-1H-imidazol-2-yl)-1-pyrrolidinyl)pyrido[4,3-d]pyrimidin-4(3H)-one]
+++ (Emax>200 and ≤300)	0.5 to 3	Cc1nc2cc(N3C[C@H](C)O[C@@H](c4cnn(C)c4)C3)nc(-c3ccc(Cl)cc3F)c2c(=O)n1C (single isomer, unassigned) [Example 30]
++++ (Emax>300)	3 to 100	Cc1nc2cc(N3CC[C@@H](c4cccnc4)C3)nc(-c3ccc(Cl)cc3F)c2c(=O)n1C [Example 260, (S)-5-(4-chloro-2-fluorophenyl)-2,3-dimethyl-7-(3-(pyridin-3-yl)pyrrolidin-1-yl)pyrido[4,3-d]pyrimidin-4(3H)-one]
	0.5 to 3	Cc1nc2cc(N3CCO[C@H]([C@@H]4CCOC4)C3)nc(-c3ccc(Cl)cc3F)c2c(=O)n1C (single isomer, unassigned) [Example 45]
+++ (Emax>200 and ≤300)	3 to 100	Cc1nc2cc(N3CCC[C@H](N4CCCC4)C3)nc(-c3ccc(Cl)cc3F)c2c(=O)n1C [Example 242, (S)-5-(4-chloro-2-fluorophenyl)-2,3-dimethyl-7-(3-(pyrrolidin-1-yl)piperidin-1-yl)pyrido[4,3-d]pyrimidin-4(3H)-one]
+++ (Emax>200 and ≤300)	0.5 to 3	Cc1nc2cc(N3C[C@H](C)O[C@@H](C4CC4)C3)nc(-c3ccc(Cl)cc3F)c2c(=O)n1C (single isomer, unassigned) [Example 35]
+++ (Emax>200 and ≤300)	3 to 100	Cc1nc2cc(N3CCC[C@H](C4CN(C)C4)C3)nc(-c3ccc(Cl)cc3F)c2c(=O)n1C [Example 252, (R)-5-(4-chloro-2-fluorophenyl)-2,3-dimethyl-7-(3-(1-methylazetidin-3-yl)piperidin-1-yl)pyrido[4,3-d]pyrimidin-4(3H)-one]
++++ (Emax>300)	3 to 100	Cc1nc2cc(N3CC[C@@H](C(F)(F)F)C3)nc(-c3ccc(Cl)cc3F)c2c(=O)n1C [Example 256, (R)-5-(4-chloro-2-fluorophenyl)-2,3-dimethyl-7-(3-(trifluoromethyl)pyrrolidin-1-yl)pyrido[4,3-d]pyrimidin-4(3H)-one]
+++ (Emax>200 and ≤300)	0.05 to 0.5	Cc1nc2cc(N3CCC(C(F)(F)F)C3)nc(-c3ccc(Cl)cc3F)c2c(=O)n1C (centres unmarked) [Example 119, 5-(4-chloro-2-fluorophenyl)-2,3-dimethyl-7-(3-(trifluoromethyl)-1-pyrrolidinyl)pyrido[4,3-d]pyrimidin-4(3H)-one]
